Assay results from patent publication US20250215101A1, “DR5 Agonist and PLK1 Inhibitor or CDK Inhibitor Combination Therapy” (Inhibrx Biosciences, Inc., priority 2022, published 2025).
Like-named read-outs stand apart in the source and are kept apart here.

Key:
Format in all cases: cell-based
[1] = system: Panc 10.05; assay: Cytotoxicity assay, pancreatic cell line panel, onvansertib +/- 1 nM INBRX-109; conditions: for EC50: Homo sapiens, Panc1005, Panc 10.05; for Max Cytotox at 600 nM: Panc 10.05
Method: (§1) Monolayer cultures of each cell line were harvested for compound screening as detailed below.
(§2) Also on day 2, test and control articles were added.
(§3) On day 4, viability measurements were taken. […] Data was graphed in GraphPad Prism 9.
(§4) The results for a panel of colorectal cancer cell lines are shown in Table 3 and FIGS. 4-6, and the results for a panel of pancreatic cell lines are shown in Table 4 and FIGS. 7 and 8.

[2] = system: PSN-1; assay: as above; conditions: for EC50: Homo sapiens, PSN1, PSN-1; for Max Cytotox at 600 nM: PSN-1
Method: as §1, §2, §3, §4

[3] = system: Capan-1; assay: as above; conditions: for Max Cytotox at 600 nM: Capan-1; for EC50: Homo sapiens, CAPAN-1, Capan-1
Method: as §1, §2, §3, §4

[4] = system: BxPC-3; assay: as above; conditions: for Max Cytotox at 600 nM: BxPC-3; for EC50: Homo sapiens, BXPC-3, BxPC-3
Method: as §1, §2, §3, §4

[5] = system: Panc 05.04; assay: as above; conditions: for EC50: Panc 05.04, Panc 05.04; for Max Cytotox at 600 nM: Panc 05.04
Method: as §1, §2, §3, §4

[6] = system: PANC-1; assay: as above; conditions: for EC50: Homo sapiens, PANC-1, PANC-1; for Max Cytotox at 600 nM: PANC-1
Method: as §1, §2, §3, §4

[7] = system: HPAF-II; assay: as above; conditions: for EC50: Homo sapiens
Method: as §1, §2, §3, §4

[8] = system: KP4; assay: as above; conditions: for EC50: Homo sapiens, KP-4, KP4; for Max Cytotox at 600 nM: KP4
Method: as §1, §2, §3, §4

[9] = system: MIA PaCa-2; assay: as above; conditions: for EC50: Homo sapiens, MIA PaCa-2, MIA PaCa-2; for Max Cytotox at 600 nM: MIA PaCa-2
Method: as §1, §2, §3, §4

[10] = system: AsPC-1; assay: as above; conditions: for Max Cytotox at 600 nM: AsPC-1; for EC50: Homo sapiens, ASPC1, AsPC-1
Method: as §1, §2, §3, §4

[11] = system: Capan-2; assay: as above; conditions: for Max Cytotox at 600 nM: Capan-2; for EC50: Homo sapiens, Capan-2, Capan-2
Method: as §1, §2, §3, §4

[12] = system: SU.86.86; assay: as above; conditions: for EC50: Homo sapiens, SU.86.86, SU.86.86; for Max Cytotox at 600 nM: SU.86.86
Method: as §1, §2, §3, §4

[13] = system: CFPAC-1; assay: as above; conditions: for Max Cytotox at 600 nM: CFPAC-1; for EC50: Homo sapiens, CFPAC-1, CFPAC-1
Method: as §1, §2, §3, §4

[14] = system: Panc 03.27; assay: as above; conditions: for EC50: Homo sapiens, PANC-03-27, Panc 03.27; for Max Cytotox at 600 nM: Panc 03.27
Method: as §1, §2, §3, §4

[15] = system: SW-1990; assay: as above; conditions: for EC50: Homo sapiens, SW1990, SW-1990; for Max Cytotox at 600 nM: SW-1990
Method: as §1, §2, §3, §4

[16] = system: HuP-T4; assay: as above; conditions: for EC50: Homo sapiens, HuP-T4, HuP-T4; for Max Cytotox at 600 nM: HuP-T4
Method: as §1, §2, §3, §4

[17] = system: PL45; assay: as above; conditions: for EC50: PL45, PL45; for Max Cytotox at 600 nM: PL45
Method: as §1, §2, §3, §4

[18] = system: LS411N; assay: Cell viability (CellTiter-Glo) cytotoxicity assay, INBRX-109 x onvansertib matrix, 48 h; conditions: for EC50: Homo sapiens, LS-411N
Method: as §1
(§5) Onvansertib: A 10 mg stock of onvansertib was purchased from Selleck Chemicals and was resuspended to 10 mM in DMSO. This was then aliquoted and stored at −80° C. Aliquots were thawed immediately prior to dilution and use in the assay. A 500× master plate of serial dilutions (6-point 5-fold dilutions in 100% DMSO starting at 500 μM, plus a DMSO only control) was prepared and mixed gently with a pipette. To generate a 5× working dilution plate of onvansertib, a 1:100 dilution was performed from the 500× plate into complete media (EMEM).
as §2, §3

[19] = system: SW837; assay: as above; conditions: for EC50: Homo sapiens, SW837, SW837; for Max Cytotox at 200 nM: SW837
Method: as §1, §5, §2, §3

[20] = system: SW1463; assay: as above; conditions: for EC50: Homo sapiens, SW1463, SW1463; for Max Cytotox at 200 nM: SW1463
Method: as §1, §5, §2, §3

[21] = system: HT-29; assay: as above; conditions: for Max Cytotox at 200 nM: HT-29; for EC50: Homo sapiens, HT-29, HT-29
Method: as §1, §5, §2, §3

[22] = system: SW620; assay: as above; conditions: for EC50: Homo sapiens, SW-620, SW620; for Max Cytotox at 200 nM: SW620
Method: as §1, §5, §2, §3

[23] = system: LS174T; assay: as above; conditions: for EC50: Homo sapiens
Method: as §1, §5, §2, §3

Structure (SMILES): CN1CCN(c2ccc(OC(F)(F)F)c(Nc3ncc4c(n3)-c3c(c(C(N)=O)nn3CCO)CC4)c2)CC1 [Onvansertib]
- EC50 ([1]; onvansertib + 1 nM INBRX-109): 0.0817 µM
- EC50 ([1]; onvansertib only): 0.0819 µM
- Max Cytotox at 600 nM ([1]; onvansertib + 1 nM INBRX-109): 83.3%
- Max Cytotox at 600 nM ([1]; onvansertib only): 47.2%
- EC50 ([2]; onvansertib + 1 nM INBRX-109): 0.063 µM
- EC50 ([2]; onvansertib only): 0.0853 µM
- Max Cytotox at 600 nM ([2]; onvansertib + 1 nM INBRX-109): 98.0%
- Max Cytotox at 600 nM ([2]; onvansertib only): 83.2%
- Max Cytotox at 600 nM ([3]; onvansertib + 1 nM INBRX-109): 94.3%
- Max Cytotox at 600 nM ([3]; onvansertib only): 27.8%
- EC50 ([3]; onvansertib + 1 nM INBRX-109): 0.079 µM
- EC50 ([3]; onvansertib only): 0.186 µM
- Max Cytotox at 600 nM ([4]; onvansertib + 1 nM INBRX-109): 91.8%
- Max Cytotox at 600 nM ([4]; onvansertib only): 70.1%
- EC50 ([4]; onvansertib + 1 nM INBRX-109): 0.119 µM
- EC50 ([4]; onvansertib only): 0.139 µM
- EC50 ([5]; onvansertib + 1 nM INBRX-109): 0.0611 µM
- EC50 ([5]; onvansertib only): 0.205 µM
- Max Cytotox at 600 nM ([5]; onvansertib + 1 nM INBRX-109): 97.4%
- Max Cytotox at 600 nM ([5]; onvansertib only): 44.4%
- EC50 ([6]; onvansertib + 1 nM INBRX-109): 0.121 µM
- EC50 ([6]; onvansertib only): 0.152 µM
- Max Cytotox at 600 nM ([6]; onvansertib + 1 nM INBRX-109): 87.2%
- Max Cytotox at 600 nM ([6]; onvansertib only): 36.2%
- EC50 ([7]; onvansertib + 1 nM INBRX-109): 0.0519 µM
- EC50 ([7]; onvansertib only): 0.0633 µM
- Max Cytotox at 600 nM ([7]; onvansertib + 1 nM INBRX-109): 68.2%
- Max Cytotox at 600 nM ([7]; onvansertib only): 27.2%
- EC50 ([8]; onvansertib + 1 nM INBRX-109): 0.0824 µM
- EC50 ([8]; onvansertib only): 0.105 µM
- Max Cytotox at 600 nM ([8]; onvansertib + 1 nM INBRX-109): 97.8%
- Max Cytotox at 600 nM ([8]; onvansertib only): 74.7%
- EC50 ([9]; onvansertib + 1 nM INBRX-109): 0.0813 µM
- EC50 ([9]; onvansertib only): 0.179 µM
- Max Cytotox at 600 nM ([9]; onvansertib + 1 nM INBRX-109): 96.4%
- Max Cytotox at 600 nM ([9]; onvansertib only): 67.0%
- Max Cytotox at 600 nM ([10]; onvansertib + 1 nM INBRX-109): 60.0%
- Max Cytotox at 600 nM ([10]; onvansertib only): 19.9%
- EC50 ([10]; onvansertib + 1 nM INBRX-109): 0.23 µM
- EC50 ([10]; onvansertib only): 0.444 µM
- Max Cytotox at 600 nM ([11]; onvansertib + 1 nM INBRX-109): 46.2%
- Max Cytotox at 600 nM ([11]; onvansertib only): 3.9%
- EC50 ([11]; onvansertib + 1 nM INBRX-109): 0.135 µM
- EC50 ([11]; onvansertib only): 0.15 µM
- EC50 ([12]; onvansertib + 1 nM INBRX-109): 0.0914 µM
- EC50 ([12]; onvansertib only): 0.629 µM
- Max Cytotox at 600 nM ([12]; onvansertib + 1 nM INBRX-109): 98.9%
- Max Cytotox at 600 nM ([12]; onvansertib only): 30.5%
- Max Cytotox at 600 nM ([13]; onvansertib + 1 nM INBRX-109): 86.4%
- Max Cytotox at 600 nM ([13]; onvansertib only): 45.3%
- EC50 ([13]; onvansertib + 1 nM INBRX-109): 0.154 µM
- EC50 ([13]; onvansertib only): 0.135 µM
- EC50 ([14]; onvansertib + 1 nM INBRX-109): 0.09 µM
- EC50 ([14]; onvansertib only): 0.121 µM
- Max Cytotox at 600 nM ([14]; onvansertib + 1 nM INBRX-109): 87.5%
- Max Cytotox at 600 nM ([14]; onvansertib only): 36.7%
- EC50 ([15]; onvansertib + 1 nM INBRX-109): 0.598 µM
- EC50 ([15]; onvansertib only): 0.7 µM
- Max Cytotox at 600 nM ([15]; onvansertib + 1 nM INBRX-109): 68.7%
- Max Cytotox at 600 nM ([15]; onvansertib only): 13.4%
- EC50 ([16]; onvansertib + 1 nM INBRX-109): 0.0351 µM
- EC50 ([16]; onvansertib only): 0.138 µM
- Max Cytotox at 600 nM ([16]; onvansertib + 1 nM INBRX-109): 85.3%
- Max Cytotox at 600 nM ([16]; onvansertib only): 33.7%
- EC50 ([17]; onvansertib + 1 nM INBRX-109): 0.0681 µM
- EC50 ([17]; onvansertib only): 0.0836 µM
- Max Cytotox at 600 nM ([17]; onvansertib + 1 nM INBRX-109): 82.2%
- Max Cytotox at 600 nM ([17]; onvansertib only): 56.5%
- EC50 ([18]; onvansertib + 1 nM INBRX-109, read-out: EC50): ~0.0103 µM
- EC50 ([18]; onvansertib only, read-out: EC50): ~4150 µM
- Max Cytotox at 200 nM ([18]; onvansertib + 1 nM INBRX-109): 84.45%
- Max Cytotox at 200 nM ([18]; onvansertib only): 12.35%
- EC50 ([19]; onvansertib + 1 nM INBRX-109): ~0.0432 µM
- EC50 ([19]; onvansertib only): 27.2 µM
- Max Cytotox at 200 nM ([19]; onvansertib + 1 nM INBRX-109): 80.64%
- Max Cytotox at 200 nM ([19]; onvansertib only): 27.17%
- EC50 ([20]; onvansertib + 1 nM INBRX-109): ~0.0382 µM
- EC50 ([20]; onvansertib only): 0.124 µM
- Max Cytotox at 200 nM ([20]; onvansertib + 1 nM INBRX-109): 74.39%
- Max Cytotox at 200 nM ([20]; onvansertib only): 25.79%
- Max Cytotox at 200 nM ([21]; onvansertib + 1 nM INBRX-109): 94.63%
- Max Cytotox at 200 nM ([21]; onvansertib only): 5.54%
- EC50 ([21]; onvansertib + 1 nM INBRX-109): 0.0214 µM
- EC50 ([21]; onvansertib only): ~0.0023 µM
- EC50 ([22]; onvansertib + 1 nM INBRX-109): 0.0305 µM
- EC50 ([22]; onvansertib only): 0.0313 µM
- Max Cytotox at 200 nM ([22]; onvansertib + 1 nM INBRX-109): 87.53%
- Max Cytotox at 200 nM ([22]; onvansertib only): 51.37%
- EC50 ([23]; onvansertib + 1 nM INBRX-109): ~0.0547 µM
- EC50 ([23]; onvansertib only): ~0.197 µM
- Max Cytotox at 200 nM ([23]; onvansertib + 1 nM INBRX-109): 79.32%
- Max Cytotox at 200 nM ([23]; onvansertib only): 16.93%
